What was measured:
Phytophthora infestans = assay type: in vivo; conditions: tomato, protective; application rate of 50 g/ha; 3 days after the inoculation
[1] = hplc
physchem = conditions: hplc
Plasmopara viticola = assay: Plasmopara Test (Grapevine)/protective; assay type: in vivo; conditions: protective, application rate of 50 g/ha, 6 days after the inoculation
[2] = E/Z mixture, second of two values (Z position)

Row | SMILES | efficacy (Phytophthora infestans) [%] | chromatographic logP (logP determined by HPLC; single value (single isomer)) | chromatographic logP (physchem) | chromatographic logP (logP determined by HPLC; E/Z mixture, (E position)) | chromatographic logP (logP determined by HPLC; [2]) | other results
1 | CCO/N=C(/C(=O)NC(C)Cc1ccc(OCC)c(OC)c1)c1ccc2c(c1)CCCC2 (stereo not shown) [Example 13] | ≥ 86 | 4.07 |  |  |  | 
2 | CCOc1ccc(CC(C)NC(=O)C(=NOC)c2ccc(Br)cc2)cc1OC (stereo not shown) [Example 2] |  |  | 3.34 |  |  | logP [1]: 3.64
3 | CCON=C(C(=O)NC(C)Cc1ccc(OCC)c(OC)c1)c1ccc(C)cc1 (stereo not shown) [Example 14] | ≥ 86 |  |  | 3.38 | 3.71 | efficacy (Plasmopara viticola): ≥ 96%
4 | CCON=C(C(=O)NC(C)Cc1ccc(OCC)c(OC)c1)c1ccc(Br)cc1 (stereo not shown) [Example 9] |  |  |  | 3.69 | 4.01 | 
5 | CCON=C(C(=O)NC(C)Cc1ccc(OCC)c(OC)c1)c1ccc(Cl)cc1 (stereo not shown) [Example 11] | ≥ 86 |  |  | 3.59 | 3.91 | 
6 | CCOc1ccc(CC(C)NC(=O)C(=NOC)c2ccc(Cl)cc2)cc1OC (stereo not shown) [Example 4] |  |  | 3.26 |  |  | logP [1]: 3.56
7 | CCOc1ccc(CC(C)NC(=O)/C(=N/OC)c2ccc(Br)cc2)cc1OC (stereo not shown) [Example 6] | ≥ 86 |  | 3.34 |  |  | efficacy (Plasmopara viticola): ≥ 96%
8 | CCON=C(C(=O)NC(C)Cc1ccc(OCC)c(OC)c1)c1ccc2c(c1)CCCC2 (stereo not shown) [Example 12] |  | 4.41 |  |  |  | 
9 | CCOc1ccc(CC(C)NC(=O)C(=NOC)c2ccc3c(c2)CCCC3)cc1OC (stereo not shown) [Example 1, N-[2-(4-ethoxy-3-methoxyphenyl)-1-methylethyl]-2-methoxyimino-2-(5,6,7,8-tetrahydronaphthalin-2-yl)-acetic acid amide] | ≥ 86 |  |  | 3.72 | 4.04 | 
10 | CCOc1ccc(CC(C)NC(=O)C(=NOC)c2ccc(C)cc2)cc1OC (stereo not shown) [Example 10] |  |  | 3.04 |  |  | logP [1]: 3.34
11 | CCO/N=C(/C(=O)NC(C)Cc1ccc(OCC)c(OC)c1)c1ccc2c(c1)CCC2 (stereo not shown) [Example 18] |  | 3.79 |  |  |  | 
12 | CCON=C(C(=O)NC(C)Cc1ccc(OCC)c(OC)c1)c1ccc(CC)cc1 (stereo not shown) [Example 15] |  |  |  | 3.73 | 4.05 | 
13 | CCOc1ccc(CC(C)NC(=O)/C(=N/OC)c2ccc(Cl)cc2)cc1OC (stereo not shown) [Example 7] | ≥ 86 |  | 3.26 |  |  | efficacy (Plasmopara viticola): ≥ 96%
14 | CCO/N=C(\C(=O)NC(C)Cc1ccc(OCC)c(OC)c1)c1ccc(CC)cc1 (stereo not shown) [Example 19] |  | 4.05 |  |  |  | 
15 | CCO/N=C(/C(=O)NC(C)Cc1ccc(OCC)c(OC)c1)c1ccc(Br)cc1 (stereo not shown) [Example 20] |  | 3.69 |  |  |  | 
16 | CCO/N=C(\C(=O)NC(C)Cc1ccc(OCC)c(OC)c1)c1ccc2c(c1)CCC2 (stereo not shown) [Example 17] |  | 4.1 |  |  |  | 
17 | CCOc1ccc(CC(C)NC(=O)/C(=N\OC)c2ccc(Br)cc2)cc1OC (stereo not shown) [Example 5] |  |  | 3.64 |  |  | 
18 | CCON=C(C(=O)NC(C)Cc1ccc(OCC)c(OC)c1)c1ccc2c(c1)CCC2 (stereo not shown) [Example 16] |  |  |  | 3.79 | 4.1 | 
19 | CCON=C(C(=O)NC(C)Cc1ccc(OCC)c(OC)c1)c1ccc2c(c1)CCCC2 (stereo not shown) [Example 8] |  |  |  | 4.07 | 4.41 | 
20 | CCOc1ccc(CC(C)NC(=O)C(=NOC)c2ccc3c(c2)CCC3)cc1OC (stereo not shown) [Example 3] |  |  |  | 3.13 | 3.44 | 
